Test results from patent publication US7358268B2, “Imidazole derivatives as factor Xa inhibitors” (Sanofi-Aventis Deutschland GmbH, priority 2002, dated 2008).
pKi: −log10 of the molar value.

Target: T1, human factor Xa (Homo sapiens, UniProt P00742)
T1 construct: 25 μl human factor Xa (Enzyme Research Laboratories, Inc; South Bend, Ind.) in TBS-PEG; purchased Enzyme Research Laboratories, Inc; South Bend, Ind
Experiment: Factor Xa assay (chromogenic, purified enzyme)
Type: biochemical
Conditions: inhibition constant for factor Xa; chromogenic substrate S-2765 140 μM, enzyme 0.5 nM, 25° C., pH 7.8; Ki calculated from IC50 (Ki=IC50/{1+(substrate concentration/Km)}); read-out: Ki(FXa)
Experimental: The ability of the compounds of the formula I to inhibit factor Xa or factor VIIa or other enzymes like thrombin, plasmin, or trypsin can be assessed by determining the concentration of the compound of the formula I that inhibits enzyme activity by 50%, i. e. the IC50 value, which was related to the inhibition constant Ki. Purified enzymes were used in chromogenic assays. The concentration of inhibitor that causes a 50% decrease in the rate of substrate hydrolysis was determined by linear regression after plotting the relative rates of hydrolysis (compared to the uninhibited control) versus the log of the concentration of the compound of formula I. For calculating the inhibition constant Ki, the IC50 value was corrected for competition with substrate using the formula Ki=IC50/{1+(substrate concentration/Km)} wherein Km is the Michaelis-Menten constant (Chen and Prusoff, Biochem. Pharmacol. 22 (1973), 3099-3108; I. H. Segal, Enzyme Kinetics, 1975, John Wiley & Sons, New York, 100-125; which were incorporated herein by reference). a) Factor Xa Assay
In the assay for determining the inhibition of factor Xa activity TBS-PEG buffer (50 mM Tris-HCl, pH 7.8, 200 mM NaCl, 0.05% (w/v) PEG-8000, 0.02% (w/v) NaN3) was used. The IC50 was determined by combining in appropriate wells of a Costar half-area microtiter plate 25 μl human factor Xa (Enzyme Research Laboratories, Inc.; South Bend, Ind.) in TBS-PEG; 40 μl 10% (v/v) DMSO in TBS-PEG (uninhibited control) or various concentrations of the compound to be tested diluted in 10% (v/v) DMSO in TBS-PEG; and substrate S-2765 (N(α)-benzyloxycarbonyl-D-Arg-Gly-L-Arg-p-nitroanilide; Kabi Pharmacia, Inc.; Franklin, Ohio) in TBS-PEG.
The assay was performed by pre-incubating the compound of formula I plus enzyme for 10 min. Then the assay was initiated by adding substrate to obtain a final volume of 100 μl. The initial velocity of chromogenic substrate hydrolysis was measured by the change in absorbance at 405 nm using a Bio-tek Instruments kinetic plate reader (Ceres UV900HDi) at 25° C. during the linear portion of the time course (usually 1.5 min after addition of substrate). The enzyme concentration was 0.5 nM and substrate concentration was 140 μM.

T1 sequence (P00742 235-488 limits assumed): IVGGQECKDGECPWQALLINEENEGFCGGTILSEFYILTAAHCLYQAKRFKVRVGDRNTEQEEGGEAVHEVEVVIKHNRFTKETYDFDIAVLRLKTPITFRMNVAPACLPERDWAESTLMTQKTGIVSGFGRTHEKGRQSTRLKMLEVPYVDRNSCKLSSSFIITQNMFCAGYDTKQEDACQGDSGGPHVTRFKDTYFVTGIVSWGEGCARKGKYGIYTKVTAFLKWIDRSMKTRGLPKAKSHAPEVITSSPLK
T1 sequence (P00742 41-179 partner limits assumed): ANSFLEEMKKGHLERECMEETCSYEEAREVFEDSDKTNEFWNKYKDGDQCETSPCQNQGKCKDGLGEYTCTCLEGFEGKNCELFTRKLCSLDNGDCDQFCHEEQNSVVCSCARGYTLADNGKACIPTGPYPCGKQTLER

**Q.** With `CC(C)N1CCC(NC(=O)c2cncn2CC(=O)Nc2ccc(Cl)cn2)CC1` [Example 29, 3-[(5-Chloro-pyridin-2-ylcarbamoyl)-methyl]-3H-imidazole-4-carboxylic acid (1-isopropyl-piperidin-4-yl)-amide] as the compound, how does the pKi read?
**A.** 6.85

**Q.** With `O=C(NC1CCN(c2ccncc2)CC1)c1nccn1Cc1cc(-c2ccc(Cl)s2)on1` [Example 65, 1-[5-(5-Chloro-thiophen-2-yl)-isoxazol-3-ylmethyl]-1H-imidazole-2-carboxylic acid (3,4,5,6-tetrahydro-2H-[1,4′]bipyridinyl-4-yl)-amide] as the compound, how does the pKi read?
**A.** 6.93

**Q.** With `Cc1nc(-c2ccccc2)n(Cc2cc(-c3ccc(Cl)s3)on2)c1C(=O)NC1CCN(C(C)C)CC1` [Example 18, 3-[5-(5-Chloro-thiophen-2-yl)-isoxazol-3-ylmethyl]-5-methyl-2-phenyl-3H-imidazole-4-carboxylic acid (1-isopropyl-piperidin-4-yl)-amide] as the compound, how does the pKi read?
**A.** 8.15

**Q.** How did the pKi turn out when `CC(C)N1CCC(NC(=O)c2cnc(C3CC3)n2Cc2cc(-c3ccc(Cl)s3)on2)CC1` [Example 11, 3-[5-(5-Chloro-thiophen-2-yl)-isoxazol-3-ylmethyl]-2-cyclopropyl-3H-imidazole-4-carboxylic acid (1-isopropyl-piperidin-4-yl)-amide] was run?
**A.** 8.40
